Test results: PubChem BioAssay AID210 (DTP/NCI, 2004)
Where “and” joins values, the source holds several entries; their conditions need not be identical. Equal entries are not always repeated. Toxic doses and inconclusive results are not listed.

Tested on: CD2F1 mice, ip Colon 26 adenocarcinoma, median survival T/C
Assay: NCI In Vivo Anticancer Drug Screen. Data for tumor model Colon 26 Adenocarcinoma (intraperitoneal) in CD2F1 (CDF1) mice
Conditions: endpoint: median survival time, higher = longer survival
Description: The antitumor activity of compounds was measured in mice bearing transplantable tumors. Survival or tumor size were measured and the results are expressed as the measurement made in the treated group (T) divided by the measurement made in the vehicle treated control group (C). The tumor model used in this assay is Colon 26 Adenocarcinoma (intraperitoneal) in CD2F1 (CDF1) mice

O=C1c2ccccc2C(=O)c2c(NCCNCCO)ccc(NCCNCCO)c21
T/C (dose: 2.0 mg/kg/injection, schedule: Q01DX009 (ip), vehicle: saline): 191 % of control | T/C (dose: 2.5 mg/kg/injection, schedule: Q01DX009 (ip), vehicle: saline): 200 % of control and 223 % of control | T/C (dose: 2.62 mg/kg/injection, schedule: Q01DX009 (ip), vehicle: saline): 172 % of control | T/C (dose: 3.89 mg/kg/injection, schedule: Q01DX009 (ip), vehicle: saline): 209 % of control | T/C (dose: 3.89 mg/kg/injection, schedule: Q01DX009 (sc), vehicle: saline): 104 % of control | T/C (dose: 4.0 mg/kg/injection, schedule: Q01DX009 (ip), vehicle: acid diluted with saline): 182 % of control | T/C (dose: 4.0 mg/kg/injection, schedule: Q01DX009 (ip), vehicle: saline): 226 % of control | T/C (dose: 5.0 mg/kg/injection, schedule: Q01DX009 (ip), vehicle: saline): 193 % of control and 223 % of control | T/C (dose: 5.25 mg/kg/injection, schedule: Q01DX009 (ip), vehicle: saline): 213 % of control | T/C (dose: 6.22 mg/kg/injection, schedule: Q04DX003 (iv), vehicle: saline): 110 % of control | T/C (dose: 6.48 mg/kg/injection, schedule: Q01DX009 (ip), vehicle: saline): 209 % of control | T/C (dose: 6.48 mg/kg/injection, schedule: Q01DX009 (sc), vehicle: saline): 104 % of control | T/C (dose: 7.78 mg/kg/injection, schedule: Q01DX001 (iv), vehicle: saline): 104 % of control | T/C (dose: 8.0 mg/kg/injection, schedule: Q01DX009 (ip), vehicle: acid diluted with saline): 219 % of control | T/C (dose: 8.0 mg/kg/injection, schedule: Q01DX009 (ip), vehicle: saline): 236 % of control | T/C (dose: 8.0 mg/kg/injection, schedule: Q04DX003 (ip), vehicle: Klucel (hydroxypropylcellulose) (HPC)): 168 % of control | T/C (dose: 8.0 mg/kg/injection, schedule: Q04DX003 (ip), vehicle: water): 121 % of control and 209 % of control | T/C (dose: 10.0 mg/kg/injection, schedule: Q01DX009 (ip), vehicle: saline): 212 % of control and 267 % of control | T/C (dose: 10.4 mg/kg/injection, schedule: Q04DX003 (iv), vehicle: saline): 106 % of control | T/C (dose: 10.5 mg/kg/injection, schedule: Q01DX009 (ip), vehicle: saline): 294 % of control | T/C (dose: 10.8 mg/kg/injection, schedule: Q01DX009 (ip), vehicle: saline): 182 % of control | T/C (dose: 10.8 mg/kg/injection, schedule: Q01DX009 (sc), vehicle: saline): 105 % of control | T/C (dose: 13.0 mg/kg/injection, schedule: Q01DX001 (iv), vehicle: saline): 116 % of control | T/C (dose: 16.0 mg/kg/injection, schedule: Q01DX009 (ip), vehicle: acid diluted with saline): 219 % of control | T/C (dose: 16.0 mg/kg/injection, schedule: Q01DX009 (ip), vehicle: saline): 305 % of control | T/C (dose: 16.0 mg/kg/injection, schedule: Q04DX003 (ip), vehicle: Klucel (hydroxypropylcellulose) (HPC)): 200 % of control and 170 % of control and 220 % of control | T/C (dose: 16.0 mg/kg/injection, schedule: Q04DX003 (ip), vehicle: water): 188 % of control and 287 % of control | T/C (dose: 17.3 mg/kg/injection, schedule: Q04DX003 (ip), vehicle: saline): 189 % of control | T/C (dose: 17.3 mg/kg/injection, schedule: Q04DX003 (iv), vehicle: saline): 101 % of control | T/C (dose: 18.0 mg/kg/injection, schedule: Q01DX009 (ip), vehicle: saline): 182 % of control | T/C (dose: 18.0 mg/kg/injection, schedule: Q01DX009 (sc), vehicle: saline): 99 % of control | T/C (dose: 20.0 mg/kg/injection, schedule: Q01DX009 (ip), vehicle: saline): 193 % of control | T/C (dose: 21.0 mg/kg/injection, schedule: Q01DX009 (ip), vehicle: saline): 268 % of control | T/C (dose: 21.6 mg/kg/injection, schedule: Q01DX001 (iv), vehicle: saline): 100 % of control | T/C (dose: 25.0 mg/kg/injection, schedule: Q07DX003 (iv), vehicle: Klucel (hydroxypropylcellulose) (HPC)): 104 % of control | T/C (dose: 28.8 mg/kg/injection, schedule: Q04DX003 (ip), vehicle: saline): 150 % of control | T/C (dose: 28.8 mg/kg/injection, schedule: Q04DX003 (iv), vehicle: saline): 101 % of control | T/C (dose: 30.0 mg/kg/injection, schedule: Q01DX009 (sc), vehicle: saline): 90 % of control | T/C (dose: 32.0 mg/kg/injection, schedule: Q01DX009 (ip), vehicle: acid diluted with saline): 274 % of control | T/C (dose: 32.0 mg/kg/injection, schedule: Q04DX003 (ip), vehicle: Klucel (hydroxypropylcellulose) (HPC)): 162 % of control and 182 % of control | T/C (dose: 32.0 mg/kg/injection, schedule: Q04DX003 (ip), vehicle: water): 159 % of control and 287 % of control | T/C (dose: 36.0 mg/kg/injection, schedule: Q01DX001 (iv), vehicle: saline): 109 % of control | T/C (dose: 42.0 mg/kg/injection, schedule: Q01DX009 (ip), vehicle: saline): 268 % of control | T/C (dose: 48.0 mg/kg/injection, schedule: Q04DX003 (ip), vehicle: saline): 161 % of control | T/C (dose: 48.0 mg/kg/injection, schedule: Q04DX003 (iv), vehicle: saline): 108 % of control | T/C (dose: 50.0 mg/kg/injection, schedule: Q07DX003 (iv), vehicle: Klucel (hydroxypropylcellulose) (HPC)): 108 % of control | T/C (dose: 60.0 mg/kg/injection, schedule: Q01DX001 (iv), vehicle: saline): 105 % of control | T/C (dose: 64.0 mg/kg/injection, schedule: Q04DX003 (ip), vehicle: Klucel (hydroxypropylcellulose) (HPC)): 163 % of control and 173 % of control | T/C (dose: 64.0 mg/kg/injection, schedule: Q04DX003 (ip), vehicle: water): 177 % of control and 209 % of control | T/C (dose: 80.0 mg/kg/injection, schedule: Q04DX003 (ip), vehicle: saline): 165 % of control

CN(C)CCCNc1c2ccccc2nc2cccc([N+](=O)[O-])c12
T/C (dose: 0.02 mg/kg/injection, schedule: Q07DX002 (iv), vehicle: saline with Tween-80): 105 % of control | T/C (dose: 0.04 mg/kg/injection, schedule: Q07DX002 (iv), vehicle: saline with Tween-80): 107 % of control | T/C (dose: 0.07 mg/kg/injection, schedule: Q07DX002 (iv), vehicle: saline with Tween-80): 108 % of control | T/C (dose: 0.12 mg/kg/injection, schedule: Q07DX002 (iv), vehicle: saline with Tween-80): 106 % of control | T/C (dose: 0.3 mg/kg/injection, schedule: Q07DX002 (iv), vehicle: saline with Tween-80): 101 % of control | T/C (dose: 0.46 mg/kg/injection, schedule: Q07DX002 (iv), vehicle: saline with Tween-80): 100 % of control

CCCC(=O)OCc1cc(=O)n(C)c2c3c4c(cc12)c(C)cc(=O)n4CO3
T/C (dose: 6.25 mg/kg/injection, schedule: Q04DX003 (ip), vehicle: Klucel (hydroxypropylcellulose) (HPC)): 98 % of control | T/C (dose: 12.5 mg/kg/injection, schedule: Q04DX003 (ip), vehicle: Klucel (hydroxypropylcellulose) (HPC)): 104 % of control | T/C (dose: 25.0 mg/kg/injection, schedule: Q04DX003 (ip), vehicle: Klucel (hydroxypropylcellulose) (HPC)): 123 % of control | T/C (dose: 100.0 mg/kg/injection, schedule: Q04DX003 (ip), vehicle: Klucel (hydroxypropylcellulose) (HPC)): 152 % of control

Oc1ccc(C2CCCCC2)cc1CN1CCCCC1
T/C (dose: 3.12 mg/kg/injection, schedule: Q04DX003 (ip), vehicle: saline): 112 % of control | T/C (dose: 6.25 mg/kg/injection, schedule: Q04DX003 (ip), vehicle: saline): 114 % of control | T/C (dose: 12.5 mg/kg/injection, schedule: Q04DX003 (ip), vehicle: saline): 112 % of control | T/C (dose: 25.0 mg/kg/injection, schedule: Q04DX003 (ip), vehicle: saline): 104 % of control | T/C (dose: 50.0 mg/kg/injection, schedule: Q04DX003 (ip), vehicle: saline): 115 % of control | T/C (dose: 100.0 mg/kg/injection, schedule: Q04DX003 (ip), vehicle: saline): 120 % of control

O=C([O][Hg][CH2]C1COC([CH2][Hg][O]C(=O)c2ccccc2)CO1)c1ccccc1 (stereo unspecified)
T/C (dose: 37.5 mg/kg/injection, schedule: Q04DX003 (ip), vehicle: saline with Tween-80): 89 % of control | T/C (dose: 75.0 mg/kg/injection, schedule: Q04DX003 (ip), vehicle: saline with Tween-80): 94 % of control

N=c1ccn2c(n1)OC1C(O)C(CO)OC12 (stereo unspecified)
T/C (dose: 111.0 mg/kg/injection, schedule: Q01DX009 (ip), vehicle: saline with Tween-80): 110 % of control | T/C (dose: 167.0 mg/kg/injection, schedule: Q01DX009 (ip), vehicle: saline with Tween-80): 115 % of control | T/C (dose: 250.0 mg/kg/injection, schedule: Q01DX009 (ip), vehicle: saline with Tween-80): 121 % of control

OC(C1CO1)C(O)C1CO1 (stereo unspecified)
T/C (dose: 0.5 mg/kg/injection, schedule: Q04DX003 (ip), vehicle: saline): 110 % of control | T/C (dose: 1.0 mg/kg/injection, schedule: Q04DX003 (ip), vehicle: saline): 109 % of control | T/C (dose: 7.6 mg/kg/injection, schedule: Q07DX003 (iv), vehicle: saline): 165 % of control | T/C (dose: 8.0 mg/kg/injection, schedule: Q04DX003 (ip), vehicle: saline): 338 % of control | T/C (dose: 12.0 mg/kg/injection, schedule: Q07DX003 (iv), vehicle: saline): 193 % of control
